In patent publication US20090123389A1, “Methods for modulating Th17 cell development in the treatment and prevention of cellulite” (priority 2007, published 2009):

Assays:
TGFβ signaling = TGFβ signaling in T and B cells (Smad phosphorylation, lymphocyte responses to TGFβ); assay type: cell-based, mouse; settings: HF 10 nM (2.5-40 nM for Smad); SB-431542 10 μM
Experimental: DMSO, 10 nM HF, 10 nM MAZ1310 or 10 μM SB-431542 was added as indicated at the time of activation and intracellular cytokine staining was performed on expanded T cells on day 5 as in FIG. 14B
FIG. 15B is an illustration depicting the analysis of CD8^+ T cells that were activated in the presence or absence of TGFβ and cultured with DMSO, 10 nM HF, 10 nM MAZ1310 or 10 μM SB-431542. Expanded cells were restimulated on day 5 and intracellular staining was performed as above.
FIG. 15C is an illustration depicting the analysis of CFSE-labeled B cells that were activated by LPS stimulation in the presence or absence of TGFβ plus DMSO, 10 nM HF, 10 nM MAZ1310 or 10 μM SB-431542. Intracellular IL-6 production in B cells re-stimulated with PMA plus ionomycin, or cell-surface IgA expression was determined 4 days after activation by FACS analyses.
T cells were then activated in the presence or absence of 3 ng/ml TGFβ. Whole cell extracts were prepared after 1 hour of stimulation and western blot analyses were performed using the indicated antibodies.
Western blotting: Whole cell lysates were generated from T cells activated for the indicated times. For STAT3 and Smad2/3 western blots cells were harvested, washed in PBS and lysed in 50 mM Tris, pH 7.4, 0.1% SDS, 1% Triton-×100, 140 mM NaCl, 1 mM EDTA, 1 mM EGTA supplemented with protease inhibitors tablets (Roche—Germany), 1 mM NaF and 1 mM Na3VO4. […]

CD4+ CD25− T cells [1] = test: Th17 differentiation / IL-17 expression of activated CD4+ CD25− T cells (TGFβ plus IL-6); assay type: cell-based, mouse; settings: for inhibition of IL-17 expression by HPLC-purified enantiomers: TGFβ plus IL-6, day 4, compared with racemic mix
Experimental: Low doses of halofuginone (HF) were tested to determine the ability of HF to enhance Treg differentiation, while suppressing Th17 differentiation. Naïve CD4+ T cells (CD4+ CD25−) were isolated from the spleen and peripheral lymph nodes of C57B/6 mice. T cells were then activated using anti-CD3 (0.3 μg/ml) and anti-CD28 (0.5 μg/ml) antibodies either in media alone (row 1, 4), TGFβ alone (3 ng/ml—row 2, 5) or TGFβ (3 ng/ml) plus IL-6 (30 ng/ml) (row 3, 6). […] T cells were cultured for 3 days and CD25 and Foxp3 expression (Treg marker genes) was determine by FACS staining and flow cytometric analyses. Simultaneously, T cells were harvested and re-stimulated for 4 hours using phorbol myristic acetate (PMA; 10 nM), Ionomycin (1 μM) and cytokine secretion was prevented using brefeldin A (20 μg/ml). Following stimulation, the production of IL-17 and IFNγ were determined by intracellular staining and analyzed via flow cytometry.
The dose-response of HF on CD4+ T cell proliferation, activation (i.e. CD25 upregulation) and differentiation to Th1, Th2 and Th17 lineages were evaluated. Purified murine naïve CD4+ CD25− T cells were activated using anti-CD3 (0.3 μg/ml) and anti-CD28 (0.5 μg/ml) antibodies and varying amounts of HF was added to each T cell culture condition (1.25 nM-40 nM). CD4+ T cell proliferation was monitored by CFSE dilution on day 3-post activation and CD25 expression was evaluated by FACS staining 2 days after activation. For T cell differentiation experiments, naïve T cells were activated as above in the presence of Th1 (IL-12 (20 ng/ml) plus anti-IL-4 (1.5 μg/ml)), Th2 (IL-4 (50 ng/ml) plus anti-IFNγ (0.5 mg/ml)) or Th17 (TGFβ (3 ng/ml) plus IL-6 (30 ng/ml)) polarizing conditions plus titrating amounts of HF (1.25 nM-40 nM) or MAZ1310 (40 nM). […] All cytokine expression was determined by intracellular staining following PMA+Ionomycin+Brefeldin A re-stimulation and all data was normalized to control (MAZ1310)-treated cells. […] Biol., vol. 80:1-8 (2006).
(§1) Cytokines, antibodies and T cell culture: Purified CD4^+ CD25^− T cells were activated in vitro as previously described (I. M. Djuretic et al., Nat Immunol 8, 145 (2007)) using 0.3 μg/ml hamster anti-mouse CD3 (clone 145-2C11) (ATCC—Manassas, Va.) and 0.5 μg/ml hamster anti-mouse CD28 (BD Pharmingen, San Jose, Calif.). Activated cell cultures were differentiated using the following combinations of cytokines and antibodies: iTreg=recombinant human TGFβ1 (3 ng/ml; R&D systems, Minneapolis, Minn.), Th17=TGFβ1 (3 ng/ml) plus recombinant mouse IL-6 (30 ng/ml, R&D systems). Th1 and Th2 differentiation was performed as previously described. (I. M. Djuretic et al., Nat Immunol 8, 145 (2007)). Human IL-2 supernatant (National Cancer Institute) was used in culture at 0.01 U/ml and was added at 48 hours-post activation when T cells were split into tissue culture wells lacking CD3 and CD28 antibodies, with the exception of Th17 cultures that were maintained in the absence of IL-2. All reagents were added at the time of T cell activation and again at 48-hours post activation unless indicated otherwise. For some experiments, purified CD4^+ CD25^− T cells, CD8^+ T cells or B cells were labeled with 1 μM CFSE (Invitrogen) prior to activation in accordance with manufacturers instructions.
MAZ1310 was generated by chemical derivatization of halofuginone and was used at equal concentrations as a negative control.

[2] = test system: unfolded protein response (Xbp-1 splicing); test: Xbp-1 splicing / ER stress response in activated T cells; settings: tunicamycin 1 μg/ml or 10 nM HF, 4 hours
CD4+ CD25− T cells [3] = test: CD4+ T cell proliferation, CD25 upregulation, cytokine production, Th1/Th2/iTreg differentiation; assay type: cell-based, mouse; settings: titrating concentrations of tunicamycin
Experimental: The dose-response of HF on CD4+ T cell proliferation, activation (i.e. CD25 upregulation) and differentiation to Th1, Th2 and Th17 lineages were evaluated. Purified murine naïve CD4+ CD25− T cells were activated using anti-CD3 (0.3 μg/ml) and anti-CD28 (0.5 μg/ml) antibodies and varying amounts of HF was added to each T cell culture condition (1.25 nM-40 nM). CD4+ T cell proliferation was monitored by CFSE dilution on day 3-post activation and CD25 expression was evaluated by FACS staining 2 days after activation. For T cell differentiation experiments, naïve T cells were activated as above in the presence of Th1 (IL-12 (20 ng/ml) plus anti-IL-4 (1.5 μg/ml)), Th2 (IL-4 (50 ng/ml) plus anti-IFNγ (0.5 mg/ml)) or Th17 (TGFβ (3 ng/ml) plus IL-6 (30 ng/ml)) polarizing conditions plus titrating amounts of HF (1.25 nM-40 nM) or MAZ1310 (40 nM). The percentage of Th17 cells, (IL-17^+ IFNγ^−) was evaluated on day 3 following activation, whereas the abundance of Th1 cells (IFNγ^+ IL-4) and Th2 cells (IL-4^+ IFNγ^−) was determined 5 days following activation. All cytokine expression was determined by intracellular staining following PMA+Ionomycin+Brefeldin A re-stimulation and all data was normalized to control (MAZ1310)-treated cells. […] Biol., vol. 80:1-8 (2006).
as §1
Detection of cytokine production: Cytokines secreted into media supernatant were measured using the mouse Th1/Th2 cytometric bead array (CBA, BD Pharmingen) in accordance with manufacturers instructions. Briefly, CD4^+ CD25^− T cells were activated in anti-CD3/anti-CD28-coated tissue culture wells and supernatants were collected at the indicated times. For detection of intracellular cytokines in murine cells, cultured T or B cells were stimulated with 10 nM PMA (Sigma) and […] (Sigma) for 4-5 hours in the presence of […] (Sigma). Stimulated cells were harvested, washed with PBS and fixed with PBS plus 4% paraformaldehyde at room temperature for 20 minutes. […]

## NC(=O)c1ccc(-c2nc(-c3ccc4c(c3)OCO4)c(-c3ccccn3)[nH]2)cc1 [SB-431542]
TGFβ signaling
  TGFβ-induced Smad phosphorylation and other lymphocyte responses to TGFβ: abrogated all responses to TGFβ

## O=C(CC1NCCCC1O)Cn1cnc2cc(Br)c(Cl)cc2c1=O (single isomer, unassigned) [L-enantiomer]
CD4+ CD25− T cells [1]
  inhibition of IL-17 expression by HPLC-purified enantiomers: completely inactive

## CC(C)(C)OC(=O)N1CCC[C@H](O)[C@H]1CC(=O)Cn1cnc2cc(Br)c(Cl)cc2c1=O [MAZ1310]
CD4+ CD25− T cells [1]; used at equal concentrations as HF
  activity of HF derivative used as negative control: inactive

## tunicamycin
CD4+ CD25− T cells [1]; titrating concentrations of tunicamycin
  IL-17 expression in T cells: little influence
[2]
  Xbp-1 splicing: together with Xbp-1 splicing
CD4+ CD25− T cells [3]
  Th1 and Th2 differentiation: preferentially impaired

## N[C@H](CO)Cc1c[nH]c2ccccc12 [L-tryptophanol]
CD4+ CD25− T cells [1]; 0.2 mM L-tryptophanol, TGFβ plus IL-6
  IL-17 production: impaired IL-17 production

## O=C(CC1NCCCC1O)Cn1cnc2cc(Br)c(Cl)cc2c1=O (single isomer, unassigned) [D-enantiomer of HF]
CD4+ CD25− T cells [1]
  inhibition of IL-17 expression by HPLC-purified enantiomers: more potently than a racemic mix
